# Source: patent US5948785A, “Heterocyclic amide compounds and pharmaceutical use of the same” (The Green Cross Corporation, priority 1995, dated 1999)
# pKi: −log10 of the molar value.
# Target: T1, human heart chymase (Homo sapiens, UniProt P23946)
# T1 sequence (P23946 22-247): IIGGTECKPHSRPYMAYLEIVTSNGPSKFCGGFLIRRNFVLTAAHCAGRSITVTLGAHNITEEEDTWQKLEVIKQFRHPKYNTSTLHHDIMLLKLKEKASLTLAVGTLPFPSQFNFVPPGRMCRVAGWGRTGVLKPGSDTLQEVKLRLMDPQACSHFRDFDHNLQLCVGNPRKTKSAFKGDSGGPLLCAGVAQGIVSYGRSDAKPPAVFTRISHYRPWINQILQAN
# Assay: Inhibitory activity on amidase activity of human heart chymase
# Assay type: biochemical
# Settings: 5 nM chymase; succinyl-alanyl-alanyl-prolyl-phenylalanine-p-nitroanilide 2.5 mM; pH 9.0; Easson-Stedman plot; read-out: K^i (human heart chymase inhibitory activity)
# Method: The effectiveness of the inhibitory activity of compound (I) of the present invention was evaluated based on the inhibitory activity on amidase activity of human heart chymase, which was determined as in the following.
# The inhibitory activity was quantitatively determined through variation in fractional residual activity of the enzyme caused by the inventive compound in defined serial concentration (<×1, <×10, <×100-fold equivalents) relative to 5 nM chymase in the presence of synthetic substrate, succinyl-alanyl-alanyl-prolyl-phenylalanine-p-nitroanilide (final concentration 2.5 mM). The inhibitory effect was analyzed by least square regression of Easson-Stedman plot (Proc. Roy. Soc. B. 1936, 121, p. 141) utilizing bimolecular equilibrium reaction linearization formula. The inhibitory activity was evaluated by the apparent inhibitory constant (Kiapp) obtained by this analysis and inhibitory constant (Ki) calculated from final substrate concentration in the reaction mixture and Km values separately determined. The quantitative determination of initial rate of the enzyme reaction was spectrophotometrically detected in terms of an increased amount of p-nitroaniline at 405 nm produced by hydrolysis of the substrate. The chymase inhibitory activity of the compound of the present invention was calculated as ratio of residual activity in the presence of inhibitor relative to enzyme activity in the absence of inhibitor, and incorporation of the determination values was completed at a level less than initial rate guarantee absorbance at a concentration of the substrate used for the enzyme, after which analysis was performed.
# The reaction mixture consisted of an Na2 B4 O7 (100 mM)-KH2 PO4 (50 mM) buffer (pH 9.0, 120 μl) containing 0.1% Triton-X100, the inventive compound dissolved in 20 μl of 10% dimethyl sulfoxide (DMSO), 10% bovine serum albumin dissolved in 20 μl of the same buffer, substrate dissolved in 20 μl of DMSO, and 20 μl of chymase, thus amounting to 200 μl in total.
# Starting with the absorbance immediately after addition of the enzyme, increases in absorbance were recorded as a progressive curve taken precisely at equal time intervals.
# From the above data, the difference between absorbances at completion of the reaction and immediately after addition was used to quantitatively determine the residual activity of the sample added with the inhibitor relative to a control wherein the inhibitor was not added. Alternatively, reaction rates of the control and the sample added with the inhibitor were calculated for certain time period (≥20 min) with successive shift (every 10 to 30 minutes) of the period, and the residual activity ratio was quantitatively determined and analyzed from the respective reaction rates averaged through the entire reaction time.
row,Structure (SMILES),pKi
1,"Nc1cnc(-c2ccccc2)n(CC(=O)NC(Cc2ccccc2)C(=O)C(F)(F)F)c1=O (stereo not drawn) [Example 2, 2-(5-amino-6-oxo-2-phenyl-1,6-dihydro-1-pyrimidyl)-N-(1-benzyl-3,3,3-trifluoro-2-oxopropyl)acetamide]",5.14
2,"O=C(Cn1c(-c2ccc(F)cc2)ncc(NC(=O)OCc2ccccc2)c1=O)NC(Cc1ccccc1)C(=O)C(F)(F)F (stereo not drawn) [Example 3, 2-[5-benzyloxycarbonylamino-2-(4-fluorophenyl)-6-oxo-1,6-dihydro-1-pyrimidyl]-N-(1-benzyl-3,3,3-trifluoro-2-oxopropyl)acetamide]",5.25
3,"Nc1cnc(-c2ccc(F)cc2)n(CC(=O)NC(Cc2ccccc2)C(=O)C(F)(F)F)c1=O (stereo not drawn) [Example 4, 2-[5-amino-2-(4-fluorophenyl)-6-oxo-1,6-dihydro-1-pyrimidyl]-N-(1-benzyl-3,3,3-trifluoro-2-oxopropyl)acetamide]",5.39
4,"Cc1ccc(-c2ncc(NC(=O)OCc3ccccc3)c(=O)n2CC(=O)NC(Cc2ccccc2)C(=O)C(F)(F)F)cc1 (stereo not drawn) [Example 5, 2-[5-benzyloxycarbonylamino-6-oxo-2-(p-tolyl)-1,6-dihydro-1-pyrimidyl]-N-(1-benzyl-3,3,3-trifluoro-2-oxopropyl)-acetamide]",5.06

# Other lines, results leading:
row,pKi,Structure (SMILES)
1,5.15,"Cc1ccc(-c2ncc(N)c(=O)n2CC(=O)NC(Cc2ccccc2)C(=O)C(F)(F)F)cc1 (stereo not drawn) [Example 6, 2-[5-amino-6-oxo-2-(p-tolyl)-1,6-dihydro-1-pyrimidyl]-N-(1-benzyl-3,3,3-trifluoro-2-oxopropyl)acetamide]"
2,5.32,"Cc1cccc(-c2ncc(NC(=O)OCc3ccccc3)c(=O)n2CC(=O)NC(Cc2ccccc2)C(=O)C(F)(F)F)c1 (stereo not drawn) [Example 7, 2-[5-benzyloxycarbonylamino-6-oxo-2-(m-tolyl)-1,6-dihydro-1-pyrimidyl]-N-(1-benzyl-3,3,3-trifluoro-2-oxopropyl)-acetamide]"
